In US20240366624A1, “METHODS AND COMPOSITIONS FOR TREATING THROMBOTIC DISEASE” (Washington University, priority 2023, published 2024):
Entries after “also recorded” stand apart in the source; their conditions may differ.

Tests used:
Ero1α-null platelets = assay: Platelet aggregation, Ero1α-null platelets; assay type: cell-based, mouse
Experimental: FIG. 7(A-L) is an exemplary embodiment of crucial intracellular ERO1α (endoplasmic reticulum oxidoreductase 1a) for platelet activation, aggregation, and thrombus formation in accordance with the present disclosure. FIG. 7A: Ex vivo platelet thrombus formation in a flow chamber assay. Adherent and aggregated platelets were stained with rhodamine-conjugated phalloidin and imaged by confocal microscopy. Representative images (bar, 10 μm). Surface coverage and thrombus volume were measured (mean±SD, n=4). FIG. 7(B-E): Aggregation and ATP secretion of wild type (WT) and Ero1α-null platelets were induced by 0.025 U/mL thrombin, 0.05 μg/mL CRP (collagen-related peptide), 0.5 μM A23187, or 2.5 μM ADP. Platelet aggregation (i) and ATP secretion (ii). FIG. 7F: Ero1α-null platelets were pretreated with 50 μg/mL wtERO1α or wtPDI and then with 0.025 U/mL thrombin. Quantification graphs of aggregation and ATP secretion are presented as the mean±SD (n=3-4). FIG. 7G and FIG. 7H: P-selectin exposure and αIIbβ3 integrin activation of WT and Ero1α-null platelets were analyzed by flow cytometry. The data are presented as the geometric mean fluorescence intensity (MFI) value (mean±SD, n=3-4). FIG. 7I: WT and Ero1α-null platelets were treated with or without 0.025 U/mL thrombin for 1 minute in an aggregometer. The lysates were immunoprecipitated with control IgG or anti-β3 antibodies and subjected to immunoblotting with antibodies against talin1 or β3 and densitometric analysis (mean±SD, n=3). FIG. 7J: WT and Ero1α-null platelets were treated with or without 0.025 U/mL thrombin, followed by transmission electron microscopy. The original magnification was 34 800, and the extension was 313 000. Bar, 500 nm. FIG. 7K and FIG. 7L: Intravital microscopy was performed to determine the effect of 15E9 (1-3 μg/g body weight [BW]) and a blocking anti-PDI (protein disulfide isomerase) antibody (BD34, 3 μg/g BW) on platelet thrombus formation and fibrin generation at the site of laser-induced cremaster arteriolar injury (n=27-40 arterioles in 6 mice per group). The n indicates biological replicates. P values determined by unpaired Student t test (FIG. 7(A-E) and FIG. 7(G-1)), ANOVA and Dunnett test (FIG. 7F), or Mann-Whitney U test (FIG. 7K and FIG. 7L).
FIG. 9(A-C) is an exemplary embodiment of EN460 inhibiting thrombin-induced aggregation of mouse and human platelets in accordance with the present disclosure. […] P values determined by ANOVA and Dunnett's test (FIG. 9(A-B)) or Student's t-test (FIG. 9C).
FIG. 10(A-E) is an exemplary embodiment of 15E9 not affecting platelet activation and aggregation in accordance with the present disclosure. […] P values determined by unpaired Student's t-test (vs. mIgG1). […]

mouse platelets = assay: Ca2+ mobilization (FLIPR), mouse platelets; assay type: cell-based
Experimental: FIG. 15 is an exemplary embodiment of EN460 affecting the basal level of cytosolic Ca2+ and inhibiting Ca2+ mobilization in accordance with the present disclosure. WT mouse platelets were pretreated with vehicle (0.1% DMSO) or 5-10 μM EN460, followed by measuring Ca2+ release and influx after stimulation with 2 μM A23187 and the addition of 1 mM CaCl2). The data represent the mean±SD (n=3). P values determined by ANOVA and Dunnett's test.
Ca^2+ mobilization was measured as described previously. WT control and Ero1α-null platelets (1×10^8/mL) were suspended in HEPES-Tyrode buffer, pH 7.4. Cells were incubated with a Ca^2+ dye (FLIPR Ca^2+5 assay kit; Molecular Devices) for 30 minutes at 37° C. in the dark, followed by stimulation with thrombin (0.1 U/mL), A23187 (2 μM) or thapsigargin (10-20 μM). After measuring Ca^2+ release, 1 mM CaCl2) was immediately added to assess Ca^2+ influx. In other experiments, Ca^2+ dye-labeled human and WT mouse platelets were incubated with a vehicle or an inhibitor for 10 minutes at 37° C. Cytosolic Ca^2+ levels were measured using a FlexStation3 microplate reader with an excitation wavelength of 485 nm and an emission wavelength of 525 nm. Ca^2+ mobilization was quantified by the area under the curve and expressed as a relative fluorescence unit.

Structure (SMILES): O=C(O)c1cc(N2N=C(C(F)(F)F)/C(=C/c3ccc(-c4ccccc4)o3)C2=O)ccc1Cl [EN460]
- Ero1α-null platelet aggregation (Ero1α-null platelets; 3 μM): abolished; also recorded: completely blocked
- Ero1α-null platelet aggregation (Ero1α-null platelets; 3 to 10 μM): significantly inhibited
- Ca2+ release and influx (mouse platelets; A23187 stimulation, 5-10 μM): diminished
- basal level of cytosolic Ca2+ (mouse platelets; concentration-dependent, 5-10 μM, 3 to 10 μM): increased

Structure (SMILES): O=C(CSc1nc(O)cc(O)n1)N1c2ccccc2Sc2ccccc21 [B12-5]
- Ero1α-null platelet aggregation (Ero1α-null platelets; 10 μM / up to 10 μM): without affecting; also recorded: did not show an additional effect
- Ca2+ release and influx (mouse platelets; mouse platelets, thrombin or A23187): dose dependently inhibited
